{"source": "patent US7517998B2", "about": "“Non nucleoside reverse transcriptase inhibitors” (priority 2004, dated 2009)", "data": [{"biological_target": "T1, K103NNY181C mutant reverse transcriptase (Human immunodeficiency virus type 1 group M subtype B, UniProt P04585, K690N/Y768C)", "T1 construct": "mutations that occur in the reverse transcriptase segment of the pol gene", "assay": "Reverse transcriptase enzymatic assay (PicoGreen), K103N/Y181C mutant RT", "type": "biochemical, HIV-1", "settings": "IC50 mut (nM), mutant (K103N/Y181C) reverse transcriptase, enzymatic assay of Example 24", "description": "(§1) The enzymatic assay employed is described as follows: The reverse transcriptase (RT) enzyme assay has been adapted to a 96-well microtiter plate format and uses PicoGreen™ as a fluorescent intercalator. More explicitly, the HIV-1 RT enzyme was thawed and appropriately diluted into Tris/HCl 50 mM pH 7.8 containing NaCl 60 mM, MgCl2.6H2O 2 mM, DTT 6 mM, GSH 2 mM and 0.02% w/v Chaps to give ≈10 nM enzyme. To 10 μL of this enzyme solution was added 10 μL of inhibitor solution (40 μM to 2.032 nM inhibitor in the same assay buffer as above containing 4% v/v DMSO). The plate was pre-incubated for 15 minutes at room temperature before proceeding to the next step. In this pre-incubation step, the highest and lowest inhibitor concentrations were 20 μM and 1.016 nM respectively and the concentration of DMSO was 2% v/v. Then the enzymatic reaction was initiated by addition of 20 μL of substrate solution. The final reaction mixture contained Tris/HCl 50 mM pH 7.8, NaCl 60 mM, MgCl2.6H2O 2 mM, DTT 6 mM, GSH 2 mM, CHAPS 0.02% w/v, DMSO 1% v/v, poly rC 45 nM, dG15 4.5 nM, dGTP 3.6 μM, and 2.5 nM enzyme. In this incubation step, the highest and lowest inhibitor concentrations were 10 μM and 0.508 nM respectively. After addition of the substrate cocktail, the plate was covered with a plastic seal and incubated for 50 minutes at 37° C. in a dry incubator. The reaction was then quenched by addition of 5 μL of EDTA 0.5 M. The plate was shaken for 30 seconds at medium speed and incubated for 5 minutes at room temperature. Then 160 μL of PicoGreen™ 1:400 dilution from commercial stock (diluted in Tris 20 mM pH 7.5 with EDTA 1 mM) was added and the plate was shaken for 30 seconds and incubated for 10 minutes at room temperature. The plate was then analyzed using a POLARstar Galaxy fluorometer (BMG Labtechnologies) with λex and λem of 485 nm and 520 nm respectively. Each well was read for 1.25 second. Each row contained at its extremities a blank and a control well.", "units": {"IC50": "nM"}, "values": [{"compound": "CC(C)(C)c1ccc(-n2nnnc2SCC(=O)Nc2ccc(NS(=O)(=O)c3ccccc3)cc2Cl)c(Cl)c1", "note": "[Compound 7003]", "IC50": 607}, {"compound": "CC(C)(C)c1ccc(-n2nnnc2SCC(=O)Nc2ccc(NC(=O)C3CCCCC3)cc2Cl)c(Cl)c1", "note": "[Compound 7022]", "IC50": 629}, {"compound": "CC(C)(C)c1ccc(-n2nnnc2SCC(=O)Nc2ccc(NC(=O)Cc3ccccc3)cc2Cl)c(Cl)c1", "note": "[Compound 7001]", "IC50": 116}, {"compound": "CC(C)(C)c1ccc(-n2nnnc2SCC(=O)Nc2ccc(NC(=O)c3ccccc3Cl)cc2Cl)c(Cl)c1", "note": "[Compound 7013]", "IC50": 121}, {"compound": "CN(C)c1ccc(CC(=O)Nc2ccc(NC(=O)CSc3nnnn3-c3ccc(C(C)(C)C)cc3Cl)c(Cl)c2)cc1", "note": "[Compound 7037]", "IC50": 236}, {"compound": "CC(C)(C)c1ccc(-n2nnnc2SCC(=O)Nc2ccc(NC(=O)Cc3ccsc3)cc2Cl)c(Cl)c1", "note": "[Compound 7026]", "IC50": 88}, {"compound": "CC(C)(C)c1ccc(-n2nnnc2SCC(=O)Nc2ccc(NC(=O)Cc3c(Cl)cccc3Cl)cc2Cl)c(Cl)c1", "note": "[Compound 7036]", "IC50": 712}]}, {"biological_target": "T1, K103NNY181C mutant reverse transcriptase", "assay": "Reverse transcriptase enzymatic assay (PicoGreen), K103N/Y181C mutant RT", "type": "biochemical, HIV-1", "settings": "IC50 mut, K103N/Y181C mutant reverse transcriptase, enzymatic assay of Example 24", "description": "as §1", "units": {"IC50": "nM"}, "values": [{"compound": "CN(C)CCCNC(=O)C(C)(C)C#Cc1ccc(NC(=O)CSc2nnnn2-c2ccc(CC3CC3)cc2Cl)c(Cl)c1", "note": "[Compound 4245]", "IC50": 459}, {"compound": "O=C(CSc1nnnn1-c1ccc(C2CC2)cc1Cl)Nc1ccc(C#CC2(CN3CCCC3)CC2)cc1Cl", "note": "[Compound 4092]", "IC50": 61.5}, {"compound": "CN(C)CCCNC(=O)C(C)(C)C#Cc1ccc(NC(=O)CSc2nnnn2-c2ccc(C3CC3)cc2Cl)c(Cl)c1", "note": "[Compound 4145]", "IC50": 48}, {"compound": "CC(C)(C#Cc1ccc(NC(=O)CSc2nnnn2-c2ccc(C3CC3)cc2Cl)c(Cl)c1)OCCN1CCC(O)CC1", "note": "[Compound 4104]", "IC50": 64.5}, {"compound": "CC(C)(C#Cc1ccc(NC(=O)CSc2nnnn2-c2ccc(CC3CC3)cc2Cl)c(Cl)c1)C(=O)NCCCN1CCCC1=O", "note": "[Compound 4244]", "IC50": 217}, {"compound": "CC(C)(C#Cc1ccc(NC(=O)CSc2nnnn2-c2cc(C(F)(F)F)ccc2Cl)c(Cl)c1)OCCOc1ccncc1", "note": "[Compound 4168]", "IC50": 108}, {"compound": "CN(C)CCCC(=O)NC(C)(C)C#Cc1ccc(NC(=O)CSc2nnnn2-c2cc(C(F)(F)F)ccc2Cl)c(Cl)c1", "note": "[Compound 4147]", "IC50": 52}, {"compound": "CC(C)(C#Cc1ccc(NC(=O)CSc2nnnn2-c2ccc(C3CC3)cc2Cl)c(Cl)c1)NCc1cc[n+]([O-])cc1", "note": "[Compound 4186]", "IC50": 12}, {"compound": "CC(C)(C#Cc1ccc(NC(=O)CSc2nnnn2-c2ccc(C3CC3)cc2Cl)c(Cl)c1)NC(=O)CNc1cc[n+]([O-])cc1", "note": "[Compound 4193]", "IC50": 29}, {"compound": "CC(C)(C)c1ccc(-n2nnnc2SCC(=O)Nc2ccc(C#CCN3CCCC3)cc2Cl)c(Cl)c1", "note": "[Compound 4012]", "IC50": 46}, {"compound": "CC(C)(C#Cc1ccc(NC(=O)CSc2nnnn2-c2ccc(C(C)(C)C)cc2Cl)c(Cl)c1)OCC(=O)Nc1ccccc1", "note": "[Compound 4044]", "IC50": 296}, {"compound": "CC(C)(C#Cc1ccc(NC(=O)CSc2nnnn2-c2ccc(C(C)(C)C)cc2Cl)c(Cl)c1)OCC(=O)Nc1ccncc1", "note": "[Compound 4041]", "IC50": 35}, {"compound": "CC(C)(C#Cc1ccc(NC(=O)CSc2nnnn2-c2cc(CC3CC3)ccc2Cl)c(Cl)c1)C(=O)O", "note": "[Compound 4213]", "IC50": 32.5}, {"compound": "CC(C)(C#Cc1ccc(NC(=O)CSc2nnnn2-c2cc(C(C)(C)C)ccc2Cl)c(Cl)c1)NC(=O)CNc1cc[n+]([O-])cc1", "note": "[Compound 4203]", "IC50": 164}, {"compound": "CC(C)(C#Cc1ccc(NC(=O)CSc2nnnn2-c2ccc(C3CC3)cc2Cl)c(Cl)c1)NC(=O)CNc1ccncc1", "note": "[Compound 4188]", "IC50": 24}, {"compound": "CC(C)(C#Cc1ccc(NC(=O)CSc2nnnn2-c2cc(F)ccc2Cl)c(Cl)c1)C(=O)O", "note": "[Compound 4212]", "IC50": 362}, {"compound": "CC(C)(C#Cc1ccc(NC(=O)CSc2nnnn2-c2cc(Cl)c(C3CC3)cc2Cl)c(Cl)c1)C(=O)O", "note": "[Compound 4206]", "IC50": 152}, {"compound": "CC(C)(C)c1ccc(-n2nnnc2SCC(=O)Nc2ccc(C#CCCC(=O)O)cc2Cl)c(Cl)c1", "note": "[Compound 4102]", "IC50": 24.5}, {"compound": "CC(C)(C)c1ccc(-n2nnnc2SCC(=O)Nc2ccc(C#CCN3CCOCC3)cc2Cl)c(Cl)c1", "note": "[Compound 4010]", "IC50": 27}, {"compound": "CN1CCN(CC#Cc2ccc(NC(=O)CSc3nnnn3-c3ccc(C(C)(C)C)cc3Cl)c(Cl)c2)CC1", "note": "[Compound 4015]", "IC50": 40}, {"compound": "CC(C)(C#Cc1ccc(NC(=O)CSc2nnnn2-c2ccc(C(C)(C)C)cc2Cl)c(Cl)c1)OCC(=O)NCCC(=O)O", "note": "[Compound 4055]", "IC50": 15}, {"compound": "CC(C)(C#Cc1ccc(NC(=O)CSc2nnnn2-c2cc(C(C)(C)C)cc(Br)c2Cl)c(Cl)c1)NC(=O)c1cc[n+]([O-])cc1", "note": "[Compound 4223]", "IC50": 30}, {"compound": "CC(C)(C#Cc1ccc(NC(=O)CSc2nnnn2-c2cc(C(F)(F)F)cc(C3CC3)c2Cl)c(Cl)c1F)NC(=O)c1ccc[n+]([O-])c1", "note": "[Compound 4230]", "IC50": 30.5}, {"compound": "CC(C)(C)c1ccc(-n2nnnc2SCC(=O)Nc2ccc(C#CCCCO)cc2Cl)c(Cl)c1", "note": "[Compound 4004]", "IC50": 16}, {"compound": "CC(C)(C#Cc1ccc(NC(=O)CSc2nnnn2-c2cc(C(F)(F)F)c(C3CC3)cc2Cl)c(Cl)c1)C(=O)O", "note": "[Compound 4211]", "IC50": 482}, {"compound": "C[C@H](CC(=O)O)C(=O)NC(C)(C)C#Cc1ccc(NC(=O)CSc2nnnn2-c2ccc(C3CC3)cc2Cl)c(Cl)c1", "note": "[Compound 4239]", "IC50": 8.2}, {"compound": "CC(C)(O)C#Cc1ccc(NC(=O)CSc2nnnn2-c2ccc(C3CC3)cc2Cl)c(Br)c1", "note": "[Compound 4078]", "IC50": 13.5}]}, {"biological_target": "T1, K103NNY181C mutant reverse transcriptase", "assay": "Reverse transcriptase enzymatic assay (PicoGreen), K103N/Y181C mutant RT", "type": "biochemical, HIV-1", "settings": "IC50 mut, mutant reverse transcriptase, enzymatic assay of Example 24", "description": "as §1", "units": {"IC50": "nM"}, "values": [{"compound": "CC(C)(C)c1ccc(-n2nnnc2SCC(=O)Nc2ccc(-c3ccc(OCCN4CCC(C(=O)O)CC4)cc3)cc2Cl)c(Cl)c1", "note": "[Compound 2040]", "IC50": 36}, {"compound": "CN(C)c1ccc(NC(=O)COc2ccc(NC(=O)CSc3nnnn3-c3ccc(C(C)(C)C)cc3Cl)c(Cl)c2)cc1", "note": "[Compound 5012]", "IC50": 466}, {"compound": "O=C(COc1ccc(NC(=O)CSc2nnnn2-c2ccc(C3CC3)cc2Cl)c(Cl)c1)NCc1cccnc1", "note": "[Compound 5033]", "IC50": 124}, {"compound": "O=C(CSc1nnnn1-c1ccc(C2CC2)cc1Cl)Nc1ccc(-c2ccc(OCCN3CCCCC3)cc2)c(F)c1Cl", "note": "[Compound 2051]", "IC50": 30.5}, {"compound": "CC(C)c1ccc(-n2nnnc2SCC(=O)Nc2ccc(-c3ccc(OCCN4CCCC4)cc3)cc2Cl)c(Br)c1", "note": "[Compound 2053]", "IC50": 24}, {"compound": "Cc1cc(C)c(-n2nnnc2SCC(=O)Nc2ccc(-c3ccc(C(C)(C)C(=O)O)cc3)cc2Cl)c(Cl)c1", "note": "[Compound 2025]", "IC50": 42}, {"compound": "O=C(O)Cc1ccc(-c2ccc(NC(=O)CSc3nnnn3-c3ccc(C(F)(F)F)cc3Cl)c(Cl)c2)cc1", "note": "[Compound 2023]", "IC50": 169}, {"compound": "CC(CC(=O)O)NC(=O)COc1ccc(NC(=O)CSc2nnnn2-c2ccc(C(C)(C)C)cc2Cl)c(Cl)c1", "note": "(stereo not shown) [Compound 5014]", "IC50": 146}, {"compound": "O=C(CSc1nnnn1-c1ccc(C2CC2)cc1Cl)Nc1ccc(S(=O)(=O)N2CCC(C(=O)O)CC2)cc1Cl", "note": "[Compound 3042]", "IC50": 387}, {"compound": "O=C(O)Cc1ccc(-c2ccc(NC(=O)CSc3nnnn3-c3ccc(C4CC4)cc3Cl)c(Cl)c2)cc1", "note": "[Compound 2033]", "IC50": 15}, {"compound": "COC(=O)C1CCN(CCOc2ccc(NC(=O)CSc3nnnn3-c3ccc(C(C)(C)C)cc3Cl)c(Cl)c2)CC1", "note": "[Compound 3035]", "IC50": 355}, {"compound": "Cc1ccc(-n2nnnc2SCC(=O)Nc2ccc(-c3ccc(CC(N)=O)cc3)cc2[N+](=O)[O-])c(Cl)c1", "note": "[Compound 2013]", "IC50": 20}, {"compound": "CC(C)(C)c1ccc(-n2nnnc2SCC(=O)Nc2ccc(-c3ccc(OCCN4CCCCC4)cc3)cc2Cl)c(Cl)c1", "note": "[Compound 2039]", "IC50": 28}, {"compound": "CN(CCc1cc[n+]([O-])cc1)C(=O)COc1ccc(NC(=O)CSc2nnnn2-c2ccc(C3CC3)cc2Cl)c(Cl)c1", "note": "[Compound 5041]", "IC50": 132}, {"compound": "CC(C)(C)c1ccc(-n2nnnc2SCC(=O)Nc2ccc(S(=O)(=O)Nc3ccccc3)cc2Cl)c(Cl)c1", "note": "[Compound 3026]", "IC50": 423}, {"compound": "Cc1ccc(-n2nnnc2SCC(=O)Nc2ccc(-c3ccc(CC(=O)NS(C)(=O)=O)cc3)cc2Cl)c(Cl)c1", "note": "[Compound 2017]", "IC50": 38}, {"compound": "Cc1ccc(-n2nnnc2SCC(=O)Nc2ccc(-c3csc(N)n3)cc2Cl)c(Cl)c1", "note": "[Compound 3015]", "IC50": 185}, {"compound": "CC(C)(C)c1ccc(-n2nnnc2SCC(=O)Nc2ccc(OCC(=O)NC[C@H]3CC[C@H](C(=O)O)CC3)cc2Cl)c(Cl)c1", "note": "[Compound 5031]", "IC50": 118}, {"compound": "CC(C)(C)c1ccc(-n2nnnc2SCC(=O)Nc2ccc(S(=O)(=O)NCC(=O)O)cc2Cl)c(Cl)c1", "note": "[Compound 3032]", "IC50": 97.5}, {"compound": "Cc1ccc(-n2nccc2OCC(=O)Nc2ccc(-c3ccc(CC(=O)O)cc3)cc2Cl)c(Cl)c1", "note": "[Compound 1003]", "IC50": 770}, {"compound": "Cc1nnc(SCC(=O)Nc2ccc(-c3ccc(OCC(=O)O)cc3)cc2Cl)n1-c1ccc(C(C)(C)C)cc1Cl", "note": "[Compound 1001]", "IC50": 25.5}]}]}
